The results in this text go back to PubChem BioAssay (NCI).

Among the test systems are KM12 colon; A549 NSCLC; NCI-H23 lung; 786-0 renal; SW-620 colon; HT29 colon; SF-295 CNS; SNB-75 CNS; HL-60(TB) leukemia; SNB-19 CNS.
Common to all, as to experiment: NCI-60 cell line screen, 48 h

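The compound was tested at five concentrations on cells cultured in 96-well plates, with a 48-hour exposure period. GI50: concentration for 50% inhibition of growth. At the TGI there is no net growth.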

`[N-]=[N+]=C1C(=O)NN=C1c1ccccc1`: the TGI in the experiment on KM12 colon, in the experiment with A549 NSCLC, with NCI-H23 lung, with 786-0 renal, in the experiment with SW-620 colon and in the experiment on HT29 colon was over 100 µM in each case. Further, the TGI with SF-295 CNS, in the experiment with SNB-75 CNS and in the experiment on HL-60(TB) leukemia was over 100 µM in each case.
Take `COc1cc2c(cc1OCCCCC(=O)Nc1cc3c4ccccc4ccc3c3ccccc13)N=C[C@@H]1CCCN1C2=O`: the GI50 is 3.87 µM in the experiment on KM12 colon; 27.1 µM in the experiment on A549 NSCLC; 20 µM in the experiment on NCI-H23 lung; 11.3 µM in the experiment with SNB-19 CNS; 7.21 µM in the experiment on 786-0 renal; 3.68 µM in the experiment with SW-620 colon. Also, the GI50 was 5.86 µM with HT29 colon, 6.98 µM in the experiment on SF-295 CNS and 19 µM with SNB-75 CNS. The TGI was 18.5 µM with KM12 colon; 61.3 µM with A549 NSCLC; 47.5 µM with NCI-H23 lung; over 61.7 µM in the experiment with SNB-19 CNS; 18.8 µM in the experiment with 786-0 renal; over 100 µM with SW-620 colon. In addition, the TGI is over 76.2 µM with HT29 colon, 63.1 µM in the experiment with SF-295 CNS and over 52.9 µM with SNB-75 CNS.
For `CCCCC(CC)COC(=O)C[N+](C)(C)CCOC(c1ccccc1)c1ccccc1` (stereo not drawn), the GI50 was 1.78 µM with KM12 colon; 17.8 µM in the experiment on A549 NSCLC; 3.77 µM in the experiment with NCI-H23 lung; 1.85 µM with SNB-19 CNS; 2.3 µM in the experiment with 786-0 renal; 1.97 µM in the experiment with SW-620 colon. For the same compound, the GI50 with HT29 colon was 3.55 µM; with SF-295 CNS, 9.63 µM; with SNB-75 CNS, 2.13 µM. The TGI amounted to 3.44 µM with KM12 colon; 38.9 µM in the experiment with A549 NSCLC; 15.9 µM in the experiment on NCI-H23 lung; 3.76 µM with SNB-19 CNS; 5.69 µM with 786-0 renal; 4.3 µM in the experiment on SW-620 colon. Moreover, the figures for the TGI with HT29 colon, in the experiment with SF-295 CNS and with SNB-75 CNS were 13.1 µM, 26.3 µM and 5.27 µM, respectively.
On to `COc1cc(/C=C/c2ccc(OC)c(O)c2)cc(OC)c1`, for which the TGI in the experiment with KM12 colon worked out at 28.3 µM; with A549 NSCLC, 33.3 µM; in the experiment on NCI-H23 lung, 12.5 µM; in the experiment on SNB-19 CNS, 24.1 µM; with 786-0 renal, 32.7 µM; in the experiment on SW-620 colon, 13.7 µM. Besides, the TGI in the experiment on HT29 colon is 32.3 µM; in the experiment on SF-295 CNS, 4.54 µM; in the experiment on HL-60(TB) leukemia, 4.43 µM.
Consider `O=C1c2cccnc2-c2nc(-c3ccc(Cl)cc3)cc3c2c1nc1ccccc13`, for which the GI50 is 41 µM with KM12 colon; 35.6 µM with A549 NSCLC; over 100 µM with SNB-19 CNS; 12.8 µM in the experiment with 786-0 renal; 28.6 µM in the experiment with SW-620 colon; 22.9 µM in the experiment with SF-295 CNS. Besides, the GI50 with SNB-75 CNS was 57.9 µM; in the experiment with HL-60(TB) leukemia, 37.6 µM. The TGI was over 100 µM in the experiment with KM12 colon; over 100 µM in the experiment on A549 NSCLC; over 100 µM in the experiment on SNB-19 CNS; 29.7 µM with 786-0 renal; over 100 µM in the experiment with SW-620 colon; over 100 µM in the experiment with SF-295 CNS. Also, the TGI with SNB-75 CNS and in the experiment on HL-60(TB) leukemia was over 100 µM throughout.
On to `COc1cc2c3c(n(CCCN)c(=O)c2cc1OC)-c1ccc(C#N)cc1C3=O`, for which the GI50 in the experiment on KM12 colon was 4.88 µM; in the experiment on A549 NSCLC, 5.53 µM; in the experiment on NCI-H23 lung, 9.02 µM; in the experiment on SNB-19 CNS, 11.6 µM; with 786-0 renal, 4.43 µM; in the experiment with SW-620 colon it was 11 µM. The GI50 was 8.52 µM in the experiment with HT29 colon, 11.1 µM in the experiment with SF-295 CNS and 0.562 µM in the experiment with SNB-75 CNS. In addition, the TGI was over 100 µM with KM12 colon; 22.1 µM in the experiment on A549 NSCLC; 25.6 µM with NCI-H23 lung; 30.4 µM in the experiment with SNB-19 CNS; 20.3 µM in the experiment on 786-0 renal; 30.6 µM with SW-620 colon. For the same compound, the results for the TGI in the experiment with HT29 colon, in the experiment on SF-295 CNS and in the experiment on SNB-75 CNS were 29.1 µM, 33.6 µM and 16.1 µM, respectively.
Turning to `COC(=O)C(Cc1nc2ccccc2[nH]c1=O)C(NO)C(=O)Nc1c(Cl)cc([N+](=O)[O-])cc1Cl` (stereo not drawn), the TGI in the experiment with KM12 colon is over 100 µM; with A549 NSCLC, over 100 µM; with NCI-H23 lung, 61.1 µM; with SNB-19 CNS, over 100 µM; with 786-0 renal, over 100 µM; with HT29 colon, over 100 µM. The TGI in the experiment with SF-295 CNS is over 100 µM.
With `O=S(=O)(c1ccc(NC(=S)NC23CC4CC(CC(C4)C2)C3)cc1)N1CCCCC1`, the GI50 in the experiment on KM12 colon is 3.65 µM; with A549 NSCLC, 3.07 µM; in the experiment on NCI-H23 lung, 3.5 µM; with SNB-19 CNS, 4.02 µM; with 786-0 renal, 4.14 µM; in the experiment on SW-620 colon it was 3.82 µM. The GI50 in the experiment on HT29 colon is 2.49 µM; in the experiment on HL-60(TB) leukemia it was 2.65 µM. Besides, the TGI in the experiment on KM12 colon was 42.2 µM; with A549 NSCLC it was over 100 µM; in the experiment with NCI-H23 lung, over 100 µM; in the experiment on SNB-19 CNS it was over 100 µM; with 786-0 renal, over 100 µM; in the experiment on SW-620 colon it was over 100 µM. For the same compound, the TGI stood at 5.84 µM in the experiment on HT29 colon and 6.24 µM with HL-60(TB) leukemia.
As to `COc1c(C(=O)/C=C/c2ccccc2)c(O)cc2occc12`, the GI50 with KM12 colon was 3.71 µM; in the experiment with A549 NSCLC, 8.62 µM; with NCI-H23 lung it was 6.12 µM; in the experiment with SNB-19 CNS it was 7.33 µM; with 786-0 renal it was 16.2 µM; with SW-620 colon, 3.52 µM. Also, the GI50 with HT29 colon is 6.34 µM; with SF-295 CNS it was 7.83 µM; in the experiment on SNB-75 CNS, 2.42 µM. Further, the TGI in the experiment with KM12 colon is 13.3 µM; in the experiment with A549 NSCLC it was 29 µM; in the experiment on NCI-H23 lung, 20.8 µM; in the experiment on SNB-19 CNS it was 20.4 µM; in the experiment on 786-0 renal, 31.8 µM; in the experiment with SW-620 colon, 11.7 µM. The TGI in the experiment with HT29 colon was 35.6 µM; in the experiment on SF-295 CNS, 21.4 µM; with SNB-75 CNS, 15.1 µM.
For the compound `CCOC(=O)N[C@@H]1C(CC(=O)OC)O[C@H]2OC(C)(C)O[C@H]21` (stereo partly drawn), the TGI in the experiment with KM12 colon, in the experiment with A549 NSCLC, in the experiment on NCI-H23 lung, in the experiment with 786-0 renal, in the experiment with SW-620 colon and in the experiment with HT29 colon was over 100 µM each time. Besides, the TGI in the experiment with SF-295 CNS, in the experiment on SNB-75 CNS and in the experiment with HL-60(TB) leukemia was over 100 µM in each case.
